From patent US5840936A, “Aminosterol compounds useful as inhibitors of the sodium/proton exchanger (NHE)” (priority 1995, dated 1998)
“Also recorded” adds a separate entry of the source.

Experiments:
HM = HM MTT assay; format: cell-based; conditions: Table II; read-out: HM MTT assay, Minimum Effective Concentration
[1] = tested on: Xenopus tadpoles, stage 59-60; assay: Xenopus tadpole assay; conditions: for Pharmacologic similarity in tadpole assay: in vivo; for Tadpole assay, observed effects: 10 μg/ml
[2] = tested on: chick embryo vitelline capillaries; assay: Chick embryo vitelline capillary regression assay; format: in vivo; design: key to Vitelline capillary regression: +: Vascular reactivity; 0: No vascular reactivity; +/-: Equivocal reactivity
Protocol: Using the chick embryo vitelline capillaries assay, compounds were tested for their ability to induce capillary regression. Each compound was applied in 0.1 ml of 15% Ficol 400 and PBS onto the embryo, and vascular regression was assessed after 60 minutes.
The 3-day chick embryo consists of an embryonic disc from which numerous vessels emerge and return, forming a "FIG. 8"-shaped structure--the embryo in the center with vascular loops extending outward over both poles. […] Following a lag period of around 15 minutes, the constriction of continuity between capillary and secondary vessels, generally on the "venous" side, was observed. Continued pulsatile blood flow progressed, resulting in a "swelling" of the blind tube, followed by a pinching off of the remaining connection and formation of an enclosed vascular sac resembling a "blood island." This process progressed until only the largest vessels remained intact.

[3] = Fasting blood glucose in mice; format: in vivo, male CD-1 mice
Protocol: To study the effect of steroid administrator or the NHE responsible for secretion of insulin, several of the aminosterols from shark liver were administered to fasting mice. Male CD-1 mice were assigned to one of four treatment groups. Whole blood glucose was tested using glucometer (Lifescan Glucometer II and One Touch test strips). Statistical analysis was via one-way analysis of variance (ANOVA) followed by subsequent Bonferonni's t-test.

NHE1 = conditions: cited from earlier work
NHE2 = conditions: cited from earlier work
NHE3 = conditions: cited from earlier work
[4] = tested on: L1210 lymphoblastic leukemia; assay: Mouse model of L1210 leukemia; conditions: mouse, in vivo
Description: C57B mice were inoculated with L1210 lymphoblastic leukemia cells at an inoculum that causes leukemia in 100% of animals.

COC(=O)CC[C@@H](C)[C@H]1CC[C@H]2[C@@H]3CC[C@H]4C[C@H](NCCCNCCCCNCCCN)CC[C@]4(C)[C@H]3CC[C@]12C [Compound 458]
minimal effective concentration (HM): 6.8 µg/mL
Pharmacologic similarity in tadpole assay [1]: pharmacologic activity similar to that seen for FX 3

C[C@H](CCC(=O)O)[C@H]1CC[C@H]2[C@@H]3[C@H](O)C[C@@H]4C[C@H](NCCCNCCCCNCCCN)CC[C@]4(C)[C@H]3CC[C@]12C [Compound 412]
Vitelline capillary regression ([2]; 0.001 μg applied): 0
Vitelline capillary regression ([2]; 0.01 μg applied): 0
Vitelline capillary regression ([2]; 0.1 μg applied): 0
Vitelline capillary regression ([2]; 1 μg applied): +
minimal effective concentration (HM): 18.1 µg/mL
Pharmacologic similarity in tadpole assay [1]: pharmacologic activity similar to that seen for FX 3

COC(=O)CC[C@@H](C)[C@H]1CC[C@H]2[C@@H]3[C@H](O)C[C@@H]4C[C@@H](NCCCNCCCCNCCCN)CC[C@]4(C)[C@H]3CC[C@]12C [Compound 411]
Vitelline capillary regression ([2]; 0.001 μg applied): 0
Vitelline capillary regression ([2]; 0.01 μg applied): 0
Vitelline capillary regression ([2]; 0.1 μg applied): 0
Vitelline capillary regression ([2]; 1 μg applied): +/-

C[C@H](CCC(=O)O)[C@H]1CC[C@H]2[C@@H]3[C@H](O)C[C@@H]4C[C@@H](NCCN)CC[C@]4(C)[C@H]3CC[C@]12C [Compound 415]
Vitelline capillary regression ([2]; 0.001 μg applied): 0
Vitelline capillary regression ([2]; 0.01 μg applied): +
Vitelline capillary regression ([2]; 0.1 μg applied): +
Vitelline capillary regression ([2]; 1 μg applied): +

CC(C)C(CO)(CC[C@@H](C)[C@H]1CC[C@H]2[C@@H]3[C@H](O)C[C@H]4C[C@@H](NCCCNCCCCN)CC[C@]4(C)[C@H]3CC[C@]12C)OS(=O)(=O)O (single isomer, unassigned) [Compound 1437]
Hyperglycemia ([3]; i.v., 1436 in D5W, 1437 in water): caused hyperglycemia in mice
Fasting Blood Glucose Mean ± SEM ([3]; total dose 20 mg/kg i.v. (2 × 10 mg/kg), 30 min. after 2d dose): 82 ± 15.3 mg/dL
Tadpole assay, observed effects [1]: Epithelium covering the embryonic portions of the animal, such as the tail and antennae, began to slough off in sheets; also recorded: the larval skin was observed to shed off in a sheet

CC(COS(=O)(=O)O)C(=O)CC[C@@H](C)[C@H]1CC[C@H]2[C@@H]3[C@H](O)C[C@H]4C[C@@H](NCCCNCCCCN)CC[C@]4(C)[C@H]3CC[C@]12C (single isomer, unassigned) [Compound 1360]
Vitelline capillary regression ([2]; 1 μg applied): 0
Effect on chick embryo vessels ([2]; 3- to 5-day chick embryo): the blood circulating through the embryonic vessels exhibited a brighter red color, reflecting a higher degree of oxygenation
Tadpole assay, observed effects [1]: Swelling and lysis of certain erythrocytes occurred; also recorded: extensive vasocclusion occurred within 60 minutes throughout the tail

COC(=O)CC[C@@H](C)[C@H]1CC[C@H]2[C@@H]3[C@H](O)C[C@@H]4C[C@H](NCCN)CC[C@]4(C)[C@H]3CC[C@]12C [Compound 410]
Vitelline capillary regression ([2]; 0.001 μg applied): 0
Vitelline capillary regression ([2]; 0.01 μg applied): +/-
Vitelline capillary regression ([2]; 0.1 μg applied): +/-
Vitelline capillary regression ([2]; 1 μg applied): +
minimal effective concentration (HM): 2.6 µg/mL
Pharmacologic similarity in tadpole assay [1]: functionally similar to compound 1437

C[C@H](CCC(=O)O)[C@H]1CC[C@H]2[C@@H]3[C@H](O)C[C@H]4C[C@H](NCCCNCCCCN)CC[C@]4(C)[C@H]3CC[C@]12C [Compound 382]
Vitelline capillary regression ([2]; 0.001 μg applied): 0
Vitelline capillary regression ([2]; 0.01 μg applied): 0
Vitelline capillary regression ([2]; 0.1 μg applied): 0
Vitelline capillary regression ([2]; 1 μg applied): +
Vitelline capillary regression ([2]; 10 μg applied): +

COC(=O)CC[C@@H](C)[C@H]1CC[C@H]2[C@@H]3C[C@@H](O)[C@H]4C[C@H](NCCN)CC[C@]4(C)[C@H]3CC[C@]12C [Compound 431]
Pharmacologic similarity in tadpole assay [1]: functionally similar to compound 1437

COC(=O)CC[C@@H](C)[C@H]1CC[C@H]2[C@@H]3[C@H](O)C[C@@H]4C[C@@H](NCCN)CC[C@]4(C)[C@H]3CC[C@]12C [Compound 409]
Vitelline capillary regression ([2]; 1 μg applied): 0
Pharmacologic similarity in tadpole assay [1]: functionally similar to compound 1437

C[C@H](CCC(=O)O)[C@H]1CC[C@H]2[C@@H]3[C@H](O)C[C@@H]4C[C@H](NCCN)CC[C@]4(C)[C@H]3CC[C@]12C [Compound 414]
Vitelline capillary regression ([2]; 1 μg applied): 0
Pharmacologic similarity in tadpole assay [1]: potencies comparable to that of Fraction 1

CN(C)c1nc(N)c(C(=O)N=C(N)N)nc1Cl [DMA, dimethylamiloride]
Ki (NHE1): 0.1 µM
Ki (NHE2): 0.7 µM
Ki (NHE3): 11 µM

CC(C)CCC[C@@H](C)[C@H]1CC[C@H]2[C@@H]3[C@H](O)C[C@H]4C[C@H](N)CC[C@]4(C)[C@H]3CC[C@]12C [Compound 1363]
Pharmacologic similarity in tadpole assay [1]: potencies comparable to that of Fraction 1

CC(C)CCC[C@@H](C)[C@H]1CC[C@H]2[C@@H]3CC[C@H]4C[C@@H](NCCCNCCCCN)CC[C@]4(C)[C@H]3CC[C@]12C [Compound 303]
Vitelline capillary regression ([2]; 1 μg applied): 0

C[C@H](CCC(=O)O)[C@H]1CC[C@H]2[C@@H]3[C@H](O)C[C@@H]4C[C@@H](NCCCNCCCCNCCCN)CC[C@]4(C)[C@H]3CC[C@]12C [Compound 413]
Vitelline capillary regression ([2]; 1 μg applied): 0
Pharmacologic similarity in tadpole assay [1]: effects like those produced by compound 1436

C[C@H](CCC(=O)O)[C@H]1CC[C@H]2[C@@H]3[C@H](O)C[C@H]4C[C@@H](NCCCNCCCCN)CC[C@]4(C)[C@H]3CC[C@]12C [Compound 381]
Vitelline capillary regression ([2]; 1 μg applied): 0

CCCN(C)c1nc(N)c(C(=O)N=C(N)N)nc1Cl [MPA, methylpropylamiloride]
Ki (NHE1): 0.08 µM
Ki (NHE2): 5 µM
Ki (NHE3): 10 µM

CC(C)CCC[C@@H](C)[C@H]1CC[C@H]2[C@@H]3[C@H](O)C[C@H]4C[C@H](NCCCNCCCCN)CC[C@]4(C)[C@H]3CC[C@]12C [Compound 370]
Pharmacologic similarity in tadpole assay [1]: pharmacologic activity similar to that seen for FX 3

CC(C)CCC[C@@H](C)[C@H]1CC[C@H]2[C@@H]3[C@H](O)C[C@H]4C[C@@H](NCCCNCCCCN)CC[C@]4(C)[C@H]3CC[C@]12C [Compound 371]
Vitelline capillary regression ([2]; 0.001 μg applied): 0
Vitelline capillary regression ([2]; 0.01 μg applied): 0
Vitelline capillary regression ([2]; 0.1 μg applied): 0
Vitelline capillary regression ([2]; 1 μg applied): +/-
Vitelline capillary regression ([2]; 10 μg applied): +
Pharmacologic similarity in tadpole assay [1]: effects like those produced by compound 1436

CC(C)CCC[C@@H](C)[C@H]1CC[C@H]2[C@@H]3[C@H](O)C[C@H]4C[C@@H](N)CC[C@]4(C)[C@H]3CC[C@]12C [Compound 364]
Vitelline capillary regression ([2]; 0.001 μg applied): 0
Vitelline capillary regression ([2]; 0.01 μg applied): 0
Vitelline capillary regression ([2]; 0.1 μg applied): 0
Vitelline capillary regression ([2]; 1 μg applied): +
Vitelline capillary regression ([2]; 10 μg applied): +
Chick embryo diss. assay, Minimum Effective Concentration ([2]; Table II): 1 µg

COC(=O)CC[C@@H](C)[C@H]1CC[C@H]2[C@@H]3CC[C@H]4C[C@@H](NCCCNCCCCNCCCN)CC[C@]4(C)[C@H]3CC[C@]12C [Compound 459]
minimal effective concentration (HM): 5 µg/mL
Pharmacologic similarity in tadpole assay [1]: pharmacologic activity similar to that seen for FX 3

N.N.[Cl][Pt][Cl] [Cisplatin, reference compound]
Hematological profile [4]: profound anemia by day 28

COC(=O)CC[C@@H](C)[C@H]1CC[C@H]2[C@@H]3C[C@@H](O)[C@H]4C[C@H](NCCCNCCCCNCCCN)CC[C@]4(C)[C@H]3CC[C@]12C [Compound 465]
Pharmacologic similarity in tadpole assay [1]: pharmacologic activity similar to that seen for FX 3

COC(=O)CC[C@@H](C)[C@H]1CC[C@H]2[C@@H]3C[C@@H](O)[C@H]4C[C@@H](NCCCNCCCCNCCCN)CC[C@]4(C)[C@H]3CC[C@]12C [Compound 466]
Pharmacologic similarity in tadpole assay [1]: pharmacologic activity similar to that seen for FX 3

C[C@H](CCC(=O)O)[C@H]1CC[C@H]2[C@@H]3CC[C@H]4C[C@H](NCCCNCCCCN)CC[C@]4(C)[C@H]3CC[C@]12C [Compound 318]
Vitelline capillary regression ([2]; 1 μg applied): 0

COC(=O)CC[C@@H](C)[C@H]1CC[C@H]2[C@@H]3C[C@@H](O)[C@H]4C[C@@H](NCCN)CC[C@]4(C)[C@H]3CC[C@]12C [Compound 432]
Pharmacologic similarity in tadpole assay [1]: functionally similar to compound 1437

COC(=O)CC[C@@H](C)[C@H]1CC[C@H]2[C@@H]3CC[C@@H]4C[C@H](NCCN)CC[C@]4(C)[C@H]3C[C@H](O)[C@]12C [Compound 416]
minimal effective concentration (HM): 2.4 µg/mL
Pharmacologic similarity in tadpole assay [1]: functionally similar to compound 1437

C[C@H](CCC(=O)O)[C@H]1CC[C@H]2[C@@H]3C[C@@H](O)[C@H]4C[C@@H](NCCN)CC[C@]4(C)[C@H]3CC[C@]12C [Compound 433]
Pharmacologic similarity in tadpole assay [1]: functionally similar to compound 1437

COC(=O)CC[C@@H](C)[C@H]1CC[C@H]2[C@@H]3[C@H](O)C[C@H]4C[C@@H](NCCCNCCCCNCCCN)CC[C@]4(C)[C@H]3CC[C@]12C [Compound 396]
Vitelline capillary regression ([2]; 0.001 μg applied): 0
Vitelline capillary regression ([2]; 0.01 μg applied): 0
Vitelline capillary regression ([2]; 0.1 μg applied): 0
Vitelline capillary regression ([2]; 1 μg applied): +

N=C(N)NC(=O)c1nc(Cl)c(N)nc1N [Amiloride]
Ki (NHE3): 100 µM
